What was measured:
[1] = tested on: white male mouse oropharynx sections (oral mucosa); test: FeCl3 staining of oropharynx sections: interaction of tannin-containing extracts and compositions with the oral mucosa; type: binding; conditions: sections treated 1 hour with 10%, 5%, 1% and 0.1% in distilled water (w/v); 2% FeCl3 for 15 minutes; optical microscope 40x
Method: 1. Assessment of interaction among plant extracts containing tannins, plant extracts not containing tannins and oral mucosa.
2 μm-thick sections of untreated white male mouse oropharynx, fixed in formalin with 10% phosphate buffer, were used.
Separate deparaffinized and hydrated sections were treated for 1 hour, respectively with
1—10%, 5%, 1% and 0.1% tannic acid in distilled water (weight/volume)
2—10%, 5%, 1% and 0.1% Agrimonia eupatoria extract in distilled water (w/v), equal to, respectively, 100 mg/ml, 50 mg/ml, 10 mg/ml and 1 mg/ml of Agrimonia eupatoria
3—10%, 5%, 1% and 0.1% Hamamelis Virginiana extract in distilled water (w/v), equal to, respectively, 100 mg/ml, 50 mg/ml, 10 mg/ml and 1 mg/ml of Hamamelis Virginiana
4—10%, 5%, 1% and 0.1% Aloe vera extract in distilled water (w/v)
5—10%, 5%, 1% and 0.1% Commiphora myrrha in distilled water (w/v)
6—composition of the invention in the form of tablets (composition example B) in a 10%, 20% 30% and 50% solution, equal to, respectively, 6.67 mg/ml, 13.34 mg/ml, 20.01 mg/ml and 33.35 mg/ml of Agrimonia eupatoria
7—composition of the invention in the form of spray (composition example C) in a 10%, 20%, 50% and 100% solution, equal to, respectively, 3.3 mg/ml, 6.6 mg/ml, 16.5 mg/ml and 33 mg/ml of Agrimonia eupatoria, […]
The sections were analyzed at the optical microscope (40× magnification) and photographed with a digital camera.

[2] = tested on: laboratory animals; conditions: cited from earlier work

## O=C(OC[C@H]1O[C@@H](OC(=O)c2cc(O)c(O)c(OC(=O)c3cc(O)c(O)c(O)c3)c2)[C@H](OC(=O)c2cc(O)c(O)c(OC(=O)c3cc(O)c(O)c(O)c3)c2)[C@@H](OC(=O)c2cc(O)c(O)c(OC(=O)c3cc(O)c(O)c(O)c3)c2)[C@@H]1OC(=O)c1cc(O)c(O)c(OC(=O)c2cc(O)c(O)c(O)c2)c1)c1cc(O)c(O)c(OC(=O)c2cc(O)c(O)c(O)c2)c1 [Sample 1, tannic acid]
[1]
  FeCl3 staining of oropharynx sections: Staining intensity is dependent on concentration
[2]
  tumour finding after subcutaneous administration: onset of hepatic tumours
